Where a name gives a salt, the structure may show the parent alone.
Molecular target: T1, canine TRPM8 (Canis lupus familiaris, UniProt Q1A7N1)
T1 construct: expressed in transfected cells
Experiment: In Vitro Canine TRPM8 Functional Assay (icilin-induced intracellular Ca2+ fluorescence, FLIPR/FDSS)
Assay type: cell-based
Details: HEK293 cells stably expressing canine TRPM8; for inhibition at 0.2 µM: 0.2 μM test compound, icilin challenge; for IC50: icilin challenge (~80% maximal response), eight-point dose-response
Experimental: The functional activity of representative compounds of the formula (I) of the present invention were measured by measuring changes in intracellular calcium concentration using a Ca^2+-sensitive fluorescent dye. The changes in fluorescent signal were monitored by a fluorescence plate reader, either a FLIPR™ (Molecular Devices) or FDSS (Hamamatsu).
HEK293 cells stably expressing canine TRPM8 were routinely grown as monolayers in Dulbecco's minimum essential medium supplemented with 10% FBS, 2 mM L-glutamine, 100 units/mL penicillin, 100 ug/mL streptomycin and 400 μg/mL G418. Cells were maintained in 5% CO2 at 37° C. At 24 hrs prior to assay, cells were seeded in black wall, clear-base poly-D-lysine coated 384-well plates (BD Biosciences, NJ, USA) at a density of 5,000 cells per well in culture medium and grown overnight in 5% CO2 at 37° C. On assay day, growth media was removed and cells were loaded with Calcium 3 Dye (Molecular Devices) for 35 min at 37° C., under 5% CO2 and then for 25 min at room temperature and atmosphere. Subsequently, cells were tested for agonist-induced increases in intracellular Ca^2+ levels using FLIPR™ or FDSS. Cells were challenged with compounds of the formula (I) (at varying concentrations) and intracellular Ca^2+ was measured for 5 min prior to the addition of icilin to all wells to achieve a final concentration that produces approximately an 80% maximal response.
Basal FI was subtracted prior to normalizing data to percent of maximal response. Curves were generated using the average of quadruplicate wells for each data point, were analyzed using nonlinear regression of either sigmoidal dose response or sigmoidal dose response (variable slope). Finally, the EC50 and IC50 values were calculated with the best-fit dose curve determined by GraphPad Prism

T1 sequence (Q1A7N1 1-1104): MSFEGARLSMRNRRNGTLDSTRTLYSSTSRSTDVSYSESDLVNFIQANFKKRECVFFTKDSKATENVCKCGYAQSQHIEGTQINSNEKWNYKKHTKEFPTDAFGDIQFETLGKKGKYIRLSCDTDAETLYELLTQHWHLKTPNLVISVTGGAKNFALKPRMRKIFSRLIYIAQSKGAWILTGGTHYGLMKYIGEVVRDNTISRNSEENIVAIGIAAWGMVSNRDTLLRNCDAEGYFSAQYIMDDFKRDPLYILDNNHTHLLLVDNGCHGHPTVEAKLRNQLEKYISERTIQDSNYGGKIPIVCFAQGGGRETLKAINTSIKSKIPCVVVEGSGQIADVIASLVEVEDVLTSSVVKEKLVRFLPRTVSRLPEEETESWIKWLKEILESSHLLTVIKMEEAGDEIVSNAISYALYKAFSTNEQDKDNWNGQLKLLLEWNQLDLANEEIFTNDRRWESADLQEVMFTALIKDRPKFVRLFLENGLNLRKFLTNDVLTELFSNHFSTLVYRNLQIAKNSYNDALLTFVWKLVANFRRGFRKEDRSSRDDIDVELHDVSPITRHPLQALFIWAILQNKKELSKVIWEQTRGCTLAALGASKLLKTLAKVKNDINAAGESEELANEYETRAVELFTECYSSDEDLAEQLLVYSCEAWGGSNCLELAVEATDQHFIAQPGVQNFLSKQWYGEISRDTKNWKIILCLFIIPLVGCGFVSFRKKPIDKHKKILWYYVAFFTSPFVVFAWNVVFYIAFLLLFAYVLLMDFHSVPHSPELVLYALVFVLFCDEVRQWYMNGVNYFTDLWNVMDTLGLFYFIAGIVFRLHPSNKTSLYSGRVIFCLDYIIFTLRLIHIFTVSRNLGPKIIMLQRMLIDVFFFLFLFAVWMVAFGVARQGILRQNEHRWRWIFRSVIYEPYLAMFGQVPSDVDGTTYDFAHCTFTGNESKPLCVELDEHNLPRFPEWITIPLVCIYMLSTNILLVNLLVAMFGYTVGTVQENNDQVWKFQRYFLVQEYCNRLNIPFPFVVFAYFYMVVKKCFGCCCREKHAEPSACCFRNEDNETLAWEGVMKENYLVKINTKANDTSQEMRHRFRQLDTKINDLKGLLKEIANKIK

SMILES: COc1ccc(Cl)cc1-c1ccc2[nH]c(C=CC3CCCCC3)nc2c1 [Compound 20, 5-(5-Chloro-2-methoxy-phenyl)-2-(2-cyclohexyl-vinyl)-1H-benzimidazole]
- inhibition at 0.2 µM: 85%
- IC50: 53 nM

SMILES: Fc1ccc(F)c(-c2ccc3[nH]c(C=CC4CCCCC4)nc3c2)c1 [Compound 22, 2-(2-Cyclohexyl-vinyl)-5-(2,5-difluoro-phenyl)-1H-benzimidazole]
- inhibition at 0.2 µM: 101%
- IC50: 31 nM

SMILES: Fc1ccccc1-c1ccc2[nH]c(C=CC3CCCC3)nc2c1 [Compound 24, 2-(2-Cyclopentyl-vinyl)-5-(2-fluoro-phenyl)-1H-benzimidazole]
- inhibition at 0.2 µM: 85%
- IC50: 97 nM

SMILES: Cc1ccsc1-c1ccc2[nH]c(C=CC3CCCC3)nc2c1 [Compound 25, 2-(2-Cyclopentyl-vinyl)-5-(3-methyl-thiophen-2-yl)-1H-benzimidazole]
- inhibition at 0.2 µM: 102%
- IC50: 13 nM

SMILES: FC(F)(F)Oc1ccccc1-c1ccc2nc(C=CC3CCCC3)[nH]c2c1 [Compound 26, 2-(2-Cyclopentyl-vinyl)-5-(2-trifluoromethoxy-phenyl)-1H-benzimidazole]
- inhibition at 0.2 µM: 100%
- IC50: 33 nM

SMILES: N#Cc1ccccc1-c1ccc2[nH]c(C=CC3CCCC3)nc2c1 [Compound 27, 2-[2-(2-Cyclopentyl-vinyl)-1H-benzimidazol-5-yl]-benzonitrile]
- inhibition at 0.2 µM: 100%
- IC50: 47 nM

SMILES: OCc1ccccc1-c1ccc2[nH]c(C=CC3CCCC3)nc2c1 [Compound 28, {2-[2-(2-Cyclopentyl-vinyl)-1H-benzimidazol-5-yl]-phenyl}-methanol]
- inhibition at 0.2 µM: 95%
- IC50: 42 nM

SMILES: CC(=O)c1ccccc1-c1ccc2[nH]c(C=CC3CCCC3)nc2c1 [Compound 29, 1-{2-[2-(2-Cyclopentyl-vinyl)-1H-benzimidazol-5-yl]-phenyl}-ethanone]
- inhibition at 0.2 µM: 77%
- IC50: 170 nM

SMILES: FC1=CCC(C=Cc2nc3cc(-c4ccccc4C(F)(F)F)ccc3[nH]2)CC1 (stereo not shown) [Compound 31, 2-[2-(4-Fluoro-cyclohex-3-enyl)-vinyl]-5-(2-trifluoromethyl-phenyl)-1H-benzimidazole]
- inhibition at 0.2 µM: 102%
- IC50: 6 nM

SMILES: FC1=CCC(C=Cc2nc3cc(-c4ccccc4OC(F)(F)F)ccc3[nH]2)CC1 (stereo not shown) [Compound 32, 2-[2-(4-Fluoro-cyclohex-3-enyl)-vinyl]-5-(2-trifluoromethoxy-phenyl)-1H-benzoimidazole hydrochloride salt]
- inhibition at 0.2 µM: 101%
- IC50: 5.2 nM

SMILES: COc1ccc(F)cc1-c1ccc2[nH]c(C=CC3CC=C(F)CC3)nc2c1 (stereo not shown) [Compound 33, 2-[2-(4-Fluoro-cyclohex-3-enyl)-vinyl]-5-(5-fluoro-2-methoxy-phenyl)-1H-benzoimidazole hydrochloride salt]
- inhibition at 0.2 µM: 101%
- IC50: 9 nM

SMILES: FC1=CCC(C=Cc2nc3cc(-c4ccccc4Cl)ccc3[nH]2)CC1 (stereo not shown) [Compound 34, 5-(2-Chloro-phenyl)-2-[2-(4-fluoro-cyclohex-3-enyl)-vinyl]-1H-benzoimidazole hydrochloride salt]
- inhibition at 0.2 µM: 101%
- IC50: 5 nM

SMILES: Cc1cccc(C)c1-c1ccc2[nH]c(C=CC3CC=C(F)CC3)nc2c1 (stereo not shown) [Compound 35, 5-(2,6-Dimethyl-phenyl)-2-[2-(4-fluoro-cyclohex-3-enyl)-vinyl]-1H-benzoimidazole hydrochloride salt]
- inhibition at 0.2 µM: 100%
- IC50: 4 nM

SMILES: FC1=CCC(C=Cc2nc3cc(-c4ccccc4F)ccc3[nH]2)CC1 (stereo not shown) [Compound 36, 2-[2-(4-Fluoro-cyclohex-3-enyl)-vinyl]-5-(2-fluoro-phenyl)-1H-benzoimidazole hydrochloride salt]
- inhibition at 0.2 µM: 100%
- IC50: 16 nM

SMILES: FC1(F)CCC(C=Cc2nc3cc(-c4ccccc4OC(F)(F)F)ccc3[nH]2)CC1 [Compound 37, 2-[2-(4,4-Difluoro-cyclohexyl)-vinyl]-5-(2-trifluoromethoxy-phenyl)-1H-benzoimidazole hydrochloride salt]
- inhibition at 0.2 µM: 100%
- IC50: 8 nM

SMILES: FC1(F)CCC(C=Cc2nc3cc(-c4ccccc4Cl)ccc3[nH]2)CC1 [Compound 38, 5-(2-Chloro-phenyl)-2-[2-(4,4-difluoro-cyclohexyl)-vinyl]-1H-benzoimidazole hydrochloride salt]
- inhibition at 0.2 µM: 101%
- IC50: 3.5 nM

SMILES: Fc1ccccc1-c1ccc2[nH]c(C=CC3CCC(F)(F)CC3)nc2c1 [Compound 39, 2-[2-(4,4-Difluoro-cyclohexyl)-vinyl]-5-(2-fluoro-phenyl)-1H-benzoimidazole hydrochloride salt]
- inhibition at 0.2 µM: 101%
- IC50: 9 nM

SMILES: COc1cccc(OC)c1-c1ccc2[nH]c(C=CC3CC=C(F)CC3)nc2c1 (stereo not shown) [Compound 40, 5-(2,6-Dimethoxy-phenyl)-2-[2-(4-fluoro-cyclohex-3-enyl)-vinyl]-1H-benzoimidazole hydrochloride salt]
- inhibition at 0.2 µM: 101%
- IC50: 2 nM

SMILES: COc1cccc(F)c1-c1ccc2[nH]c(C=CC3CC=C(F)CC3)nc2c1 (stereo not shown) [Compound 41, 2-[2-(4-Fluoro-cyclohex-3-enyl)-vinyl]-5-(2-fluoro-6-methoxy-phenyl)-1H-benzoimidazole hydrochloride salt]
- inhibition at 0.2 µM: 100%
- IC50: 6 nM

SMILES: Fc1cccc(C(F)(F)F)c1-c1ccc2[nH]c(C=CC3CCC(F)(F)CC3)nc2c1 [Compound 42, 2-[2-(4,4-Difluoro-cyclohexyl)-vinyl]-5-(2-fluoro-6-trifluoromethyl-phenyl)-1H-benzoimidazole hydrochloride salt]
- inhibition at 0.2 µM: 101%
- IC50: 3 nM

SMILES: COc1cccc(OC)c1-c1ccc2[nH]c(C=CC3CCC(F)(F)CC3)nc2c1 [Compound 43, 2-[2-(4,4-Difluoro-cyclohexyl)-vinyl]-5-(2,6-dimethoxy-phenyl)-1H-benzoimidazole hydrochloride salt]
- inhibition at 0.2 µM: 100%
- IC50: 2 nM

SMILES: COc1cccc(F)c1-c1ccc2[nH]c(C=CC3CCC(F)(F)CC3)nc2c1 [Compound 44, 2-[2-(4,4-Difluoro-cyclohexyl)-vinyl]-5-(2-fluoro-6-methoxy-phenyl)-1H-benzoimidazole hydrochloride salt]
- inhibition at 0.2 µM: 101%
- IC50: 3 nM

SMILES: COc1ccc(F)cc1-c1ccc2[nH]c(C=CC3CCC(F)(F)CC3)nc2c1 [Compound 45, 2-[2-(4,4-Difluoro-cyclohexyl)-vinyl]-5-(5-fluoro-2-methoxy-phenyl)-1H-benzoimidazole hydrochloride salt]
- inhibition at 0.2 µM: 101%
- IC50: 7 nM

SMILES: FC1=CCC(C=Cc2nc3cc(-c4ccccc4C(F)(F)F)cc(C(F)(F)F)c3[nH]2)CC1 (stereo not shown) [Compound 46, 2-[2-(4-Fluoro-cyclohex-3-enyl)-vinyl]-7-trifluoromethyl-5-(2-trifluoromethyl-phenyl)-1H-benzoimidazole hydrochloride salt]
- inhibition at 0.2 µM: 99%
- IC50: 4 nM

SMILES: FC1(F)CCC(/C=C/c2nc3cc(-c4ccccc4C(F)(F)F)cc(C(F)(F)F)c3[nH]2)CC1 [Compound 47, 2-[2-(4,4-Difluoro-cyclohexyl)-vinyl]-7-trifluoromethyl-5-(2-trifluoromethyl-phenyl)-1H-benzoimidazole hydrochloride salt]
- inhibition at 0.2 µM: 99%
- IC50: 6.3 nM

SMILES: Cc1cc(-c2ccccc2OC(F)(F)F)cc2nc(C=CC3CCCCC3)[nH]c12 [Compound 48, 2-(2-Cyclohexyl-vinyl)-7-methyl-5-(2-trifluoromethoxy-phenyl)-1H-benzoimidazole hydrochloride salt]
- inhibition at 0.2 µM: 99%
- IC50: 6 nM

SMILES: Cc1cc(-c2ccccc2C(F)(F)F)cc2nc(C=CC3CCCCC3)[nH]c12 [Compound 49, 2-(2-Cyclohexyl-vinyl)-7-methyl-5-(2-trifluoromethyl-phenyl)-1H-benzoimidazole hydrochloride salt]
- inhibition at 0.2 µM: 99%
- IC50: 3 nM

SMILES: FC(F)(F)c1ccccc1-c1ccc2[nH]c(/C=C/C3CCSCC3)nc2c1 [Compound 51, (E)-2-[2-(Tetrahydro-thiopyran-4-yl)-vinyl]-5-(2-trifluoromethyl-phenyl)-1H-benzimidazole]
- inhibition at 0.2 µM: 95%
- IC50: 31 nM

SMILES: Fc1ccccc1-c1ccc2[nH]c(/C=C/C3CCOCC3)nc2c1 [Compound 52, (E)-5-(2-Fluoro-phenyl)-2-[2-(tetrahydro-pyran-4-yl)-vinyl]-1H-benzimidazole trifluoroacetic acid salt]
- inhibition at 0.2 µM: 91%
- IC50: 70 nM

SMILES: Cc1cc(-c2ccccc2C(F)(F)F)cc2nc(/C=C/C3CCOCC3)[nH]c12 [Compound 53, (E)-7-Methyl-2-[2-(tetrahydro-pyran-4-yl)-vinyl]-5-(2-trifluoromethyl-phenyl)-1H-benzimidazole hydrochloride]
- inhibition at 0.2 µM: 102%
- IC50: 8 nM

SMILES: FC(F)(F)c1cc(-c2ccc3[nH]c(/C=C/C4CCOCC4)nc3c2)ccn1 [Compound 54, (E)-2-[2-(Tetrahydro-pyran-4-yl)-vinyl]-5-(2-trifluoromethyl-pyridin-4-yl)-1H-benzimidazole hydrochloride]
- inhibition at 0.2 µM: 1%
